Measured values taken from patent publication US7615574B2, “Synergistic composition for treating leukemia” (Council of Scientific and Industrial Research, priority 2002, dated 2009).
Where two headings read alike, the source gives them in different places.

Assays:
[1] = system: CML Patient's Leukemic cells; test: CA, PCQ and combination: growth inhibition of CML patient's leukemic cells (2×10^6 cells per ml per well); assay type: cell-based, human; conditions: for percentage growth inhibition of CML's leukemic cells: concentration not given
[2] = system: CML Patient's Leukemic cells; test: Analysis of cell cycle progression and apoptosis by Flow cytometry (propidium iodide); assay type: cell-based, human; conditions: 100.0 μg/ml; two days of culture
Experimental: Analysis of cell cycle progression and apoptosis by Flow cytometry PBMC of a CML patient was cultured in RPMI-1640 medium supplemented with 10% […] fetal bovine serum in the presence or absence of CA (100.0 μg/ml) for 48 hr. at 37° C. in 5% CO2. Cells were fixed with 40% ethanol treated with 500 μg/ml Rnase A, and then with 69 μM propidium iodide for analysis of DNA content by Flow Cytometry as described (Mitra et al., Molecular Medicine, 6:527-541, 2000).

[3] = system: U937 Promonocyte cell line; test: CA, PCQ and combination: growth inhibition of U937 (2×10^6 cells per ml per well); assay type: cell-based, human; conditions: for percentage growth inhibition of promonocyte cells: concentration not given
[4] = system: Molt 4 (T lymphoid Cell line); test: Growth inhibition of T lymphoid cell line Molt 4 by CA in vitro; assay type: cell-based; conditions: Homo sapiens, 1 × 10^5 cells per ml per well, read-out: Percentage Inhibition of Cell Growth; for inhibition at 50 µg/mL: CA 50.0 μg/ml; for inhibition at 100 µg/mL: CA 100.0 μg/ml; for inhibition at 200 µg/mL: CA 200.0 μg/ml
Description: Culture of T-Lymphoid cell line Molt-4. This cell line was obtained from American Type culture collection (ATCC), VA, USA and grown in vitro as described for the cell line K562.

[5] = system: CML patient's PBMC; test: Incubation of CML patient's PBMC with CA, viable cell count (growth inhibition); assay type: cell-based, human; conditions: PBMC / leukemic cells of CML patient
Experimental: Whole blood (10 ml each) was drawn from previously diagnosed myeloid leukemic patients, one patient was diagnosed as AML and the other one was diagnosed as CML. Mononuclear cells were separated by Ficoll/hypaque density gradient centrifugation. PBMC (1×10^5-2×10^6/ml) of myeloid leukemia patients were incubated with varied concentrations of CA for 48 hours at 37° C. in 5% CO2. Cells were then washed and counted for viability.

[6] = system: leukemia cells; test: Biological activity of Piper betel HPLC zones and peaks: destruction of leukemic cells; assay type: cell-based; conditions: HPLC zones and peaks of Fraction E of Piper betel leaf extract
Description: Collected material was examined for biological activity i.e. destruction of leukemic cells. […] 10 gm of above-mentioned material was loaded on Sephadex LH-20 column and chromatographed with water, water-methanol (1:1) and methanol as eluent. Three different fractions thus obtained from three different solvent systems were separately checked for biological activity. The activity was located only on
Fraction 2 i.e. Methanol-water (1:1) and termed as fraction E. Fraction E was then subjected to HPLC analysis using Intersil ODS-3 analytical column. The column was equilibrated with methanol-water-acetic acid (23:76:1), flow rate was maintained at 1.0 ml per min and peaks were identified at 280 nm. According to the retention time (RE) different peaks could be divided into three zones, ZA, ZB and ZC (FIG. 1). ZA had 4 major peaks whereas ZB had very small to moderate 10 peaks and ZC had two distinct peaks. It was convenient to observe biological activity of three zones AA, ZB and ZC, which were separately tested on leukemia cells for destructive activity.
The Zone ZB contained 10 peaks (1 to 10) of varied sizes. […] For this reason all different peaks were separately monitored for biological activity. […] On searching for activity of these peaks i.e. 1,5,6,7,9 and 10 corresponding to Rt 5.16, 8.34, 9.16, 9.86, 13.94 and 14.68 respectively. […]

[7] = system: K 562 Erythroleukemia cell line; test: CA, PCQ and combination: growth inhibition of K562 (2×10^6 cells per ml per well); assay type: cell-based, human; conditions: for percentage growth inhibition of Erythroleukemia cells: concentration not given
[8] = system: Normal individual's PBMC; test: CA, PCQ and combination: growth inhibition of normal individual's PBMC (2×10^6 cells per ml per well); assay type: cell-based, human
Description: Preparation of peripheral blood mononuclear cells (PBMC) from normal individuals. Whole blood was collected and mononuclear cells were separated by Ficoll/Hypaque density gradient centrifugation.
The number of cells used was 2×10^6 per ml per well.

In the case of O=C(/C=C/c1ccc(O)c(O)c1)O[C@@H]1C[C@](O)(C(=O)O)C[C@@H](O)[C@H]1O (single isomer, unassigned) [CA, Chlorogenic acid], the inhibition at 25 µg/mL ([1]; Homo sapiens, 24 h, CML patient's leukemic cells, single compound 25.0 μg/ml, 1 day, 2×10^6 cells per ml per well, read-out: % Inhibition of cell growth (After 1 day of incubation)) is reported as ≤ 2.38%, the inhibition at 50 µg/mL ([1]; Homo sapiens, 24 h, CML patient's leukemic cells, single compound 50.0 μg/ml, 1 day, 2×10^6 cells per ml per well, read-out: % Inhibition of cell growth (After 1 day of incubation)) is reported as 4.67% and the “percentage growth inhibition of CML's leukemic cells” value [1] is reported as “about 5%”. For the same molecule, the “apoptosis in CML patients Leukemic cells in vitro (cell-cycle analysis)” value [2] was “caused apoptosis”, the inhibition at 25 µg/mL ([3]; Homo sapiens, U-937, 24 h, U937, single compound 25.0 μg/ml, 1 day, 2×10^6 cells per ml per well, read-out: % Inhibition of cell growth (After 1 day of incubation)) was ≤ 16.7% and the “percentage growth inhibition of promonocyte cells” value [3] was “about 25%”. The inhibition at 50 µg/mL ([4]; 24 h, 1 day) was 3.57%, the inhibition at 100 µg/mL ([4]; 24 h, 1 day) was 6.89% and the inhibition at 200 µg/mL ([4]; 24 h, 1 day) was 13.8%. The inhibition at 50 µg/mL ([4]; 48 h, 2 days) was 6.67%, the inhibition at 100 µg/mL ([4]; 48 h, 2 days) was 14.7% and the inhibition at 200 µg/mL ([4]; 48 h, 2 days) was 46.7%. The inhibition at 100 µg/mL ([4]; 72 h, 3 days) was 18.8%, the “destruction of cells (in words)” value [5] was “destroyed” and the “biological activity i.e. destruction of leukemic cells (in words)” value [6] was “detectable activity”. The “percentage growth inhibition of Erythroleukemia cells” value [7] was “about 30%”.
O=C(C=Cc1ccc(O)cc1)OC1CC(O)(C(=O)O)CC(O)C1O (stereo not shown) [PCQ, 3-o-p-Coumaryl quinic acid] was tested, and the “% Inhibition of cell growth (After 1 day of incubation)” value (“% Inhibition of cell growth” for short) ([8]; single compound 25.0 μg/ml) was 0.00%, the “% Inhibition of cell growth” value ([8]; single compound 50.0 μg/ml) was 1.67% and the “% Inhibition of cell growth” value ([1]; CML patient's leukemic cells, single compound 50.0 μg/ml, 1 day, 2×10^6 cells per ml per well) was 4.67%. For the same molecule, the “percentage growth inhibition of CML's leukemic cells” value [1] was “about 5%”, the “% Inhibition of cell growth” value ([3]; U937, single compound 50.0 μg/ml, 1 day, 2×10^6 cells per ml per well) was 4.17% and the “percentage growth inhibition of promonocyte cells” value [3] was “about 5%”. The “biological activity i.e. destruction of leukemic cells (in words)” value [6] was “demonstrated considerable activity”, the “% Inhibition of cell growth” value ([7]; K 562, single compound 50.0 μg/ml, 1 day, 2×10^6 cells per ml per well) was 8.00% and the “percentage growth inhibition of Erythroleukemia cells” value [7] was “about 8%”.
